Measurements reported in article PMC2888690 (Journal of combinatorial chemistry, 2009).
“And” between values parts separate entries of the source, which are not always exact repeats. Identical values can stand only once. Like-named read-outs stand apart in the source and are kept apart here.

What was measured:
[1] = system: Bacillus anthracis Sterne; experiment: microbe, parasite or virus in culture; type: cell-based
[2] = system: Bacillus anthracis Sterne; experiment: microbe, parasite or virus in culture; type: cell-based; remark: listed apart in the source

Row | Compound | MIC ([1]; 5 h, read-out: LB MIC) | MIC ([1]; read-out: LB B.a. MIC) | MIC ([2]; 5 h, read-out: MH MIC) | MIC ([2]; read-out: MH B.a. MIC)
1 | Nc1ccc(S(=O)(=O)Nc2ccc(NC(=O)Nc3ccccc3[N+](=O)[O-])cc2)cc1 [compound 9, 4-Amino-(N-(4-(((2-nitrophenyl)amino)carbonyl)aminophenyl))benzenesulfonamide] | 120 µM and 53 µg/mL | – | – | –
2 | O=C(Nc1ccc(NS(=O)(=O)c2ccc(Cl)c(Cl)c2)cc1)Nc1cccc([N+](=O)[O-])c1 [5{2}, 3,4-Dichloro-(N-(4-(((3-nitrophenyl)amino)carbonyl)aminophenyl))benzenesulfonamide] | > 240 µM and > 115 µg/mL | > 240 µM and > 115 µg/mL | – | –
3 | O=C(Nc1ccc(NS(=O)(=O)c2ccc(Cl)c(Cl)c2)cc1)Nc1ccc([N+](=O)[O-])cc1 [5{1}, 3,4-Dichloro-(N-(4-(((4-nitrophenyl)amino)carbonyl)aminophenyl))benzenesulfonamide] | 2.8 µM and 1.3 µg/mL | 2.8 µM and 1.3 µg/mL | 3.8 µM and 1.8 µg/mL | 3.8 µM and 1.8 µg/mL
4 | O=C(Nc1ccc(NS(=O)(=O)c2ccc(Cl)c(Cl)c2)cc1)Nc1ccccc1[N+](=O)[O-] [5{3}, 3,4-Dichloro-(N-(4-(((2-nitrophenyl)amino)carbonyl)aminophenyl))benzenesulfonamide] | > 240 µM and > 115 µg/mL | > 240 µM and > 115 µg/mL | – | –
